Measurements reported in article PMC2607543, “Peptides Derived from HIV-1 Integrase that Bind Rev Stimulate Viral Genome Integration” (PLoS ONE, 2009).
Where no end group is shown, it is not given here.

Tests used:
[1] = tested on: HIV-1 in Sup-T1 cells; test: Time-of-addition assay, viral p24 in Sup-T1 cells; format: cell-based; conditions: MOI 2; dextran sulfate 20 µM, AZT 2 µM, LEDGF 402–411 12.5 µM; p24 at 48 h PI; Fig 8C
Method: Figure 8 Virus-cell adsorption and viral reverse-transcriptase activity are not affected by the INr peptides. (A and B) Estimation of viral DNA in virus-infected cells: Sup-T1 cells were incubated with the indicated peptides or with AZT for 2 h and then were infected with HIV. Following another 6 h incubation, the viral Gag (A) or Nef (B) DNA sequences were amplified using specific primers. The reaction was terminated after 30 cycles. Lanes: 1) INr-1 (12.5 µM); 2) INr-2 (12.5 µM); 3) AZT (2 µM); 4) untreated cells; 5) uninfected cells. […] (C) Influence of the time of addition on P24 production: Sup-T1 cells were infected with HIV-1 at a MOI of 2, and the indicated constituents were added at different time points PI (0, 2, 4,…, 24 h). Viral p24 was determined at 48 h PI. No addition (Blue X); no virus (Gray diamond); dextran sulfate 20 µM (Brown asterisk); AZT 2 µM (Red empty circle); INr-1 12.5 µM (Green diamond); INr-2 12.5 µM (Magenta square); LEDGF 402–411 (Black full circle).
Sup T1 cells were infected with wild-type HIV-1 at a MOI of 2, and the test compounds were added at different time points after infection (0, 2, 4,…, 24 h). Viral p24 production was determined at 48 h PI [59]. Dextran sulfate was tested at 20 µM, AZT at 2 µM, LEDGF 402-411, INr-1 and INr-2 at 12.5 µM.

[2] = tested on: HeLa TZM-bl cells; test: MTT cell toxicity assay, HeLa TZM-bl; format: cell-based; conditions: up to about 62 µM, Fig 4B
Method: (§1) Figure 4 Cell penetration and toxicity of INr peptides. (A) Fluorescein-labeled INr-1, INr-2, and IN-3 (a known nonpermeable peptide) each at 10 µM, were incubated for 2 h at 37°C with HeLa cells. The cells were then washed three times with PBS and visualized by confocal microscopy. (B) Cell toxicity was determined by MTT assay in HeLa TZM-bl cells. (C) Same as (B) but in H9 lymphocytes. Experimental conditions are described in Materials and Methods.
(§2) Following incubation of the cells with the indicated peptides, the medium was removed and the cells were further incubated in Earl's solution containing 0.3 mg/ml MTT for 1 h. Subsequently, the solution was removed and the cells were dissolved in 100 µl DMSO for 10 min at room temperature. The DMSO-solubilized cells were transferred to a 96-well ELISA plate and OD values were monitored at a wavelength of 570 nm.

[3] = tested on: H9 lymphocytes; test: MTT cell toxicity assay, H9; format: cell-based; conditions: up to about 62 µM, Fig 4C
Method: as §1, §2

[4] = tested on: HIV-1 IN; conditions: ref [36]; cited from earlier work
Method: Dextran sulfate, various peptides and AZT were added at different times to HIV-1 infected Sup-T1 cells and the amount of viral P24 protein—reflecting efficiency of virus infection—was estimated at 48 h PI.

[5] = tested on: HIV-1 infected cells; test: Cell death and syncytia formation in infected, INr-treated cells; format: cell-based; conditions: combination of the peptide and the virus; not shown
[6] = tested on: viral Gag or Nef DNA sequences; format: cell-based, HIV-1; conditions: INr 12.5 µM or AZT 2 µM, 2 h before infection, 6 h after; Gag (A) or Nef (B) PCR; Fig 8A and B

Compound: dextran sulfate
- Time of addition post infection up to which infection is inhibited [1]: ≤ 4 h

Compound: CC[C@H](C)[C@H](NC(=O)[C@H](CCCCN)NC(=O)CNC(=O)[C@H](CCC(=O)O)NC(=O)[C@H](CC(C)C)NC(=O)[C@H](Cc1c[nH]cn1)NC(=O)[C@@H](NC(=O)[C@@H](N)Cc1c[nH]c2ccccc12)[C@@H](C)O)C(=O)N[C@H](C(=O)N[C@@H](CC(C)C)C(=O)N[C@H](C(=O)N[C@@H](C)C(=O)N[C@H](C(=O)N[C@@H](Cc1c[nH]cn1)C(=O)N[C@H](C(=O)N[C@@H](C)C(=O)O)C(C)C)C(C)C)C(C)C)[C@@H](C)CC [INr-1]
- Toxic effect, HeLa TZM-bl cells [2]: No toxic effect
- Toxic effect, H9 T-cell lymphocytes [3]: No toxic effect

Compound: LEDGF 402–411: LEDGF-derived peptide (aa 402–411) which has been shown to block viral IN enzymatic activity (KIRRFKVSQV; UniProt O75475 402-411, looked up, fragment)
- Inhibition of IN enzymatic activity by LEDGF-derived peptides [4]: block viral IN enzymatic activity in vitro and in vivo
- Time of addition post infection up to which infection is inhibited [1]: about 18 h

Compound: WGSNFTSTTVKA [INr-2]
- Toxic effect, HeLa TZM-bl cells [2]: No toxic effect
- Cell death and syncytia formation with peptide and virus [5]: increase in cell death and syncytia formation
- Toxic effect, H9 T-cell lymphocytes [3]: No toxic effect

Compound: Cc1cn([C@H]2C[C@H](N=[N+]=[N-])[C@@H](CO)O2)c(=O)[nH]c1=O [AZT, azidothymidine]
- Effect on reverse transcription / reverse-transcribed viral DNA [6]: reverse-transcribed viral DNA is absent
- Time of addition post infection up to which infection is inhibited [1]: ≤ 10 h
